Experiments:
apo FDAS = apo FDAS (Streptantibioticus cattleyicolor, UniProt Q70GK9); assay: ITC binding of ligands to apo FDAS; set-up: species or system Streptomyces cattleya; conditions: for Stoichiometry (N) / Ka (app) / S / ΔH: 25 °C; for Stoichiometry (N): 20mM sodium phosphate buffer (pH 7.8), apo FDAS; for Ka (app) / S / ΔH: pH 7.8, apo FDAS
FDAS (native, wild type) = FDAS (native, wild type) (Streptantibioticus cattleyicolor, UniProt Q70GK9); assay: Isothermal titration calorimetry; format: binding
[1] = target: FDAS pre-incubated with adenosine (Streptantibioticus cattleyicolor, UniProt Q70GK9); conditions: 1mM L-methionine titrated into 0.024 mM Adenosine and 0.02 mM apo FDAS mixture
[2] = target: FDAS pre-incubated with 5′-FDA (Streptantibioticus cattleyicolor, UniProt Q70GK9); conditions: 1mM L-methionine titrated into 0.08 mM FDA and 0.02 mM apo FDAS mixture
FDAS [3] = target: T1, FDAS (Streptantibioticus cattleyicolor, UniProt Q70GK9); assay: Reactivity of SAH / homocysteine with FDAS; format: biochemical, Streptomyces cattleya
FDAS [4] = target: T1, FDAS; assay: Discontinuous assay of FDAS; format: biochemical, Streptomyces cattleya; conditions: F^− 200mM
D16N mutation of FDAS = D16N mutation of FDAS (Streptantibioticus cattleyicolor, UniProt Q70GK9, D16N); assay: ITC binding of SAM to D16N mutant; set-up: species or system Streptomyces cattleya
FDAS [5] = target: T1, FDAS; assay: Active site titration of FDAS; format: biochemical, Streptomyces cattleya
FDAS [6] = assay: Discontinuous assay of FDAS; format: biochemical, Streptomyces cattleya; conditions: turnover at a fixed substrate concentration compared to the wild type

Row | Compound | Kd (FDAS (native, wild type)) | Stoichiometry (N) (apo FDAS; ITC) | Ka (app) (apo FDAS; ITC) | S (apo FDAS; ITC) | ΔH (apo FDAS; ITC) | other results
1 | F [fluoride] | – | – | – | – | – | binding to the protein by ITC (apo FDAS; either as apo or SAH complex): too weak to measure
2 | Nc1ncnc2c1ncn2[C@@H]1O[C@H](CO)C[C@H]1O [3′-deoxy-Ade, 3′-deoxyadenosine] | 2220 nM | – | – | – | – | –
3 | Nc1ncnc2c1ncn2[C@@H]1O[C@H](CF)[C@@H](O)[C@H]1O [FDA, 5′-fluoro-5′-deoxyadenosine (5′-FDA)] | 220 nM | – | – | – | – | –
4 | Nc1ncnc2c1ncn2[C@@H]1O[C@H](CO)[C@@H](O)[C@H]1O [Ade, adenosine] | 820 nM | 0.67 ± 0.01 | 12.2 ± 1.2 ×10^5 M^−1 | -0.04 kcal/mol | -20 ± 0.4 kcal/mol | –
5 | Nc1ncnc2c1ncn2[C@@H]1O[C@H](CO)C[C@H]1O [3′-deoxy-Ade] | – | 0.37 ± 0.02 | 4.5 ± 0.6 ×10^5 M^−1 | -0.027 kcal/mol | -16 ± 0.9 kcal/mol | reduction of affinity relative to adenosine (apo FDAS; ITC): 3 fold
6 | CSCC[C@H](N)C(=O)O [L-methionine] | – | – | – | – | – | S [1]: -0.022 kcal/mol; Stoichiometry (N) [1]: 0.48 ± 0.11; ΔH [1]: -13 ± 3 kcal/mol; S [2]: -0.036 kcal/mol; ΔH [2]: -17 ± 2 kcal/mol
7 | Nc1ncnc2c1ncn2[C@@H]1O[C@H](CSCC[C@H](N)C(=O)O)[C@@H](O)[C@H]1O [SAH, S-adenosyl homocysteine] | 33.1 nM | 0.72 ± 0.01 | 302 ± 74 ×10^5 M^−1 | -0.098 kcal/mol | -40 ± 0.5 kcal/mol | effect on the reaction of SAM with F^− (FDAS [3]): inhibits; substrate of FDAS in the forward direction (FDAS [3]): not a substrate; 5′-ClDA production by the enzyme (FDAS [3]; incubation of Cl^− and SAH): does not produce 5′-ClDA; binding affinity relative to SAM (times more tightly bound) (apo FDAS; ITC): 40 times
8 | C[S+](CC[C@H](N)C(=O)[O-])C[C@H]1O[C@@H](n2cnc3c(N)ncnc32)[C@H](O)[C@@H]1O (stereo partly drawn) [SAM, S-adenosyl-L-methionine] | 1250 nM | 0.56 ± 0.01 | 8.0 ± 0.5 ×10^5 M^−1 | -0.058 kcal/mol | -25 ± 0.4 kcal/mol | SAM concentration above which FDAS displays substrate inhibition (FDAS [4]): greater than 20 μM; SAM binding by ITC (D16N mutation of FDAS): does not bind with measurable affinity
9 | 5′-fluoro-5′-deoxy adenosine synthetase [FDAS] | – | – | – | – | – | burst size (active sites) (FDAS [5]; 50 μM SAM mixed with FDAS (2 μM), reaction initiated with 100 mM F^−): 0.1 µM; burst size (active sites) (FDAS [5]; 100 mM F^− pre-mixed with FDAS (2 μM), reaction initiated by 50 μM SAM): 0.6 µM; % activity (FDAS [6]): 100%
10 | NC(CCS)C(=O)O (stereo not shown) [homocysteine] | – | – | – | – | – | SAH production by the enzyme (HPLC) (FDAS [3]; 5-ClDA and homocysteine): nor is any detected; SAH production by the enzyme (HPLC) (FDAS [3]; homocysteine and 5′-FDA, reverse reaction): no detectable production of SAH
11 | Nc1ncnc2c1ncn2[C@@H]1O[C@H](CF)[C@@H](O)[C@H]1O [FDA, 5′-fluoro-5′-deoxy adenosine] | – | 1.16 ± 0.01 | 45.5 ± 6.5 ×10^5 M^−1 | -0.017 kcal/mol | -14 ± 0.1 kcal/mol | –

From publication PMC3326528 (Journal of the American Chemical Society, 2007)
